Laboratory results published in patent publication US5348941A, “Stabilizers for fibroblast growth factors” (Merck & Co., Inc., priority 1992, dated 1994).

Tests used:
[1] = Storage stability of aFGF formulations (protein mass and biological activity); conditions: versus EDTA or EGTA
Excerpt: Stabilization of aFGF can be determined by several independent methods including turbidity measurements, spectroscopic techniques, maintenance of protein mass, mitogenic activity and copper catalyzed oxidation. Since acidic fibroblast growth factor is unstable at physiological temperatures (undergoing large structural changes, including aggregation, which results in a loss of mitogenic and wound healing activity), human aFGF stability can be monitored by evaluating the turbidity of the pharmaceutical composition by following the kinetics of temperature induced aggregation of unfolded protein.

aFGF [2] = target: T1, aFGF (Homo sapiens, UniProt P05230); assay: Thermal denaturation (Tm) of aFGF by fluorescence spectroscopy; format: biochemical; conditions: PBS pH 7.2
T1 construct: The recombinant derived, 140 amino add form is the preferred form of aFGF; N-terminal methionine (MetHaFGF); made in house; host or cells: microbial cells (preferred embodiment)
T1 sequence (P05230 16-155 limits assumed): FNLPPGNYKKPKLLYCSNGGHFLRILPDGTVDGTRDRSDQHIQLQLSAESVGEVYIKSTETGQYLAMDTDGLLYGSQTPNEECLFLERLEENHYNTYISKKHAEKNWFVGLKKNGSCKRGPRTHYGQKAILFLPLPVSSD
Protocol: Fluorescence spectra are obtained with a Spex Fluorolog-2 spectrofiuorometer using a 1 mm pathlength cuvette. Band passes from 1-2 nm are employed with sample absorptivities maintained below 0.1 at 280 nm. The temperature is controlled either manually or automatically as described above. Reproducibility of thermal denaturation temperatures (Tm) is ± 2° C.
To more directly ascertain the effect of heparin on aFGF stability, the temperature-induced denaturation of aFGF as a function of heparin concentration was monitored by fluorescence spectroscopy. Fluorescence spectra were obtained with a Spex Fluorolog-2 spectrofiuorometer using a 1 mm pathlength cuvette. Band passes from 1-2 nm were employed with sample absorptivities maintained below 0.1 at 280 nm. The temperature was controlled either manually or automatically as described above. Reproducibility of thermal denaturation temperatures (Tm) was ±2° C. […] Experiments were carried out at 100 μg/ml protein (6.3 μM) in a PBS buffer at pH 7.2. Curve drawn through data points for clarity only.
Studies of the stabilization of aFGF by heparin are difficult to interpret because of the inherent heterogeneity of heparin preparations, Lane and Lindahl, Eds. Heparin, Chemical and Biological Properties, Clinical Applications, Edward Arnold, London (1989); Jackson, et al., Physiol. Rev. 71: 481-539 (1991). In order to better understand the polyanionic stabilization of aFGF, a series of well-defined fragments of heparin were examined for their ability to stabilize aFGF against thermal denaturation. These enzymatically prepared and purified fragments varied in size from a disaccharide to a decasaccharide. Each fragment was incubated with aFGF at a 1:1 weight ratio in a PBS buffer. The sample was then stressed by temperature and structural changes in aFGF were monitored by both circular dichroism and fluorescence spectroscopy. […] All samples contained 100 μg/ml aFGF (6.3 μM)in a PBS buffer (pH 7.2) with 100 μg/ml of each heparin fragment.
Since these fragments of heparin have a well-defined molecular weight, the molar ratio of aFGF to ligand during these thermal denaturation experiments can be calculated. The Tm of aFGF as a function of the molar concentration of the hexasaccharide was measured by fluorescence spectroscopy. Fluorescence spectra were obtained with a Spex Fluorolog-2 spectrofiuorometer using a 1mm pathlength cuvette. Band passes from 1-2 nm were employed with sample absorptivities maintained below 0.1 at 280 nm. The temperature was controlled either manually or automatically as described above. Reproducibility of thermal denaturation temperatures (Tm) was ±2° C.
Analogous to the heparin experiments illustrated in Example 1 (FIG. 3), aFGF thermal stability was monitored by fluorescence spectroscopy as a function of concentration for several other of the polyanions. […] All samples contained 100 μg/ml of aFGF (6.3 μM) in a PBS buffer at pH 7.2.

[3] = test system: BALB/c 3T3 A31 fibroblasts; assay: Fibroblast mitogenic assay ([3H]-thymidine incorporation into DNA); format: cell-based; parameters: Bioactivity (mitogenic activity of aFGF in the presence of ligand): unit not given here; conditions: complete absence of heparin; < = response did not plateau; * = cell death observed
Protocol: Biological activity of the formulation of the instant invention is determined by a modification of the fibroblast mitogenic assay as described by Linemeyer et al. in European Patent Application, Publication No. 259,953. BALB/c 3T3 A31 fibroblasts (American Type Culture Collection) are plated at about 3×10^5 cells per 32 cm^2 wells in culture media containing about 10% heat-inactivated calf serum and incubated in about 7% CO2 (pH 7.35±0.05). The cells become fully quiescent by replacing the media with serum free media at about 6, about 24 hours and about 48 hours later. At about 53 hours after plating samples of the various formulations are added and about 0.12 μg of dexamethasone are added. At about 65 hours each well is supplemented with about 0.4 μCi of [methyl-^3 H]-thymidine (20 Ci/mmole, Dupont) and 0.6 μg of unlabeled thymidine (Sigma), and at 80 hours the cells are processed for determination of radiolabel incorporation into DNA. Each dose-response point is the average of at least quadruplicate determinations. Other cell types such vascular endothelial cells and corneal endothelial cells can be employed to determine in vitro mitogenicity. The procedures are described in detail by Thomas et al., Proc. Natl. Acad. Sci. USA 82:6409-6431 (1985).
^(d) Mitogenic activity of aFGF was measured in the presence of ligan
indicated in the complete absence of heparin.
*indicates cell death observed during assay.
Biological activity of the formulation of the instant invention was determined by a modification of the fibroblast mitogenic assay as described by Linemeyer et al. in European Patent Application, Publication No. 259,953. BALB/c 3T3 A31 fibroblasts (American Type Culture Collection) were plated at 3×10^5 cells per 32 cm^2 well in culture media containing about 10% heat-inactivated calf serum and incubated in 7% CO2 (pH 7.35±0.05). The cells become fully quiescent by replacing the media with serum free media at 6, 24 hours and 48 hours later. At 53 hours after plating samples of the various formulations were added and 0.12 μg of dexamethasone was added, at 65 hours each well was supplemented with 0.4 μCi of [methyl-^3 H]-thymidine (20 Ci/mmole, Dupont) and 0.6 μg of unlabeled thymidine (Sigma), and at 80 hours the cells were processed for determination of radiolabel incorporation into DNA. Each dose-response point is the average of at least quadruplicate determinations. Other cell types such vascular endothelial cells and corneal endothelial cells can be employed to determine in vitro mitogenidty. The procedures are described in detail by Thomas et al., Proc. Natl. Acad. Sci. USA 82:6409-6431 (1985).

aFGF [4] = target: T1, aFGF; assay: Copper-catalyzed oxidation of aFGF thiol groups; format: biochemical; conditions: ligand 3X by weight; sodium sulfate 120 mM, tetrapolyphosphate 10 mM
Protocol: Copper-catalyzed oxidation of aFGF is carried out in the following manner. Acidic FGF (about 80 μg/ml) is incubated in a 20 mM Tris, 0.15M potassium chloride, pH 8 solution containing about 20 μM cuptic chloride for varying periods of time at room temperature. The reaction was terminated by the addition of 100 mM EDTA in the same buffer. A solution of about 0.7 ml of 0.25M Tris (about pH 8) containing about 2 mM EDTA and about 7 M GuHC1 is then added followed by about 35 μl of 4 mg/ml of DTNB (Sigma). Samples were incubated for 30 minutes, filtered through a 0.22 micron filter and the optical density measured at about 412 nm to determine sulfhydryl content, Riddles et al., Meth. Enzymol. 9:49-60 (1983). Relative standard deviation of the obtained values during time course experiments is 12%.
Acidic FGF contains three free cysteine residues at positions […], 83 and 117 in the polypeptide chain. […] It has also been shown that the copper catalyzed oxidative formation of a disulfide bond in the wild-type aFGF inactivates the protein in an in vitro mitogenic assay, Ortega et al., J. Biol. Chem. 266:5842-5846 (1991). Therefore, it was of interest to determine the extent to which heparin can stabilize aFGF against inactivation by oxidation. […] Samples contained 80 μg/ml aFGF with (a) 3X heparin by weight, (b) 0.1X heparin by weight and (c) buffer alone. As heparin was introduced and its concentration increased, the rate of copper-catalyzed oxidation decreased. For example, after 20 minutes, greater than 95% of the cysteine residues of aFGF are protected from oxidation with 3X heparin. FIG. 4B illustrates the fraction of remaining reactive thiol groups after a 10-minute incubation with cupric chloride as a function of heparin concentration.
Some aggregation of aFGF occurs under the conditions of these experiments presumably due to at least partial intermolecular disulfide formation. Thus, these measurements could simply be a measurement of the loss of solubility induced by copper association with aFGF. Several experiments, however, argue against this possibility. First, previous work has shown that at dilute protein concentration, copper does indeed catalyze oxidation of thiol groups of aFGF, Ortega et al., J. Biol. Chem. 266:5842-5846 (199 1 ). Second, as a control experiment, the copper-catalyzed oxidation of aFGF was carded out in a buffer containing 6 M GuHCl. Under these denaturing conditions, nearly 100% of the thiol groups in solution were lost after 10 minutes without visible aggregation. […] Regardless of the precise mechanism, copper addition is a distinct mechanism of inactivation compared to thermal stress.
Similar protection against oxidation experiments were carried out with other negatively charged compounds with an excess of ligand (3X by weight except for sodium sulfate at 120 mM and tetrapolyphosphate at 10 mM) added to aFGF before copper catalyzed oxidation. As shown in the second column of Table 2, all of these agents at least partially protect the cysteine residues of aFGF from oxidation.
^(b) Percentage of aFGF thiols remaining in solution after 10 min
incubation with cupric chloride. Experimental conditions are described in
FIG. 10. All samples contained ligand at 3× (by weight) except
sodium sulfate (120 mM) and tetrapolyphosphate (10 mM).

aFGF [5] = target: T1, aFGF; assay: Thermal denaturation (Tm) of aFGF by circular dichroism; format: biochemical; conditions: for Tm of aFGF (maximum Tm induced by ligand), circular dichroism: PBS pH 7.2, excess ligand (1-3X by weight; 120 mM sodium sulfate, 10 mM tetrapolyphosphate)
Protocol: Circular Dichroism (CD) spectra are measured with an AVIV 62 DS spectropolarimeter. Samples of aFGF at about 100 μg/ml in a PBS buffer (6 mM sodium phosphate, 120 mM NaCl, pH 7.2) containing various ligands are placed into 1 mm pathlength cells and the cell temperature is controlled by circulating a water/ethylene glycol mixture through the cell holder. Thermal denaturation is carded out under computer control by increasing the temperature of the water bath in 2° C. increments, followed by a two-minute equilibration period at each temperature to allow the sample to reach thermal equilibrium. Reproducibility of the midpoint of these temperature melting curves (Tm) is ±2° C.
The maximum Tm values induced by 12 different ligands as determined by circular dichroism measurements at 228 nm are summarized in the first column of Table II. All of these ligands stabilize aFGF by 15°-25° C. in a manner similar to that originally observed with heparin. […] Furthermore, sulfate unions are found near analogous residues in the crystal structure of basic FGF, Eriksson et al., Proc. Natl. Acad. Sd. USA 88:3441-3445 (1991); Zhang et al., Proc. Natl. Acad. Sci. USA 88:3446-3450 (1991). Consequently, it seemed important to examine the ability of these ligands to stabilize aFGF during thermal denaturation as monitored by both fluorescence and circular dichroism. The Tm value of aFGF increased from 27° C. to 43° C. (fluorescence)and 45° C. to 51° C. (CD) when a 100 molar excess (3X by weight) of (IrCl6)^-3 was present. Similarly, sulfate union (120 mM) produced a species that was even more dramatically stabilized, melting at 57° C. (CD).
^(a) Thermal melting temperatures were measured by circular dichroism
Samples contained […] aFGF in PBS buffer pH 7.2 with excess ligand
(1-3× by weight except for 120 mM sodium sulfate and 10 mM

With `N[C@@H](Cc1c[nH]cn1)C(=O)O` [histidine] the “effectiveness of chelating agent in stabilizing the aFGF-stabilizer-HEC combination” value [1] was “not as effective as EDTA or EGTA”.
In the case of `O=C(O)CC(O)(CC(=O)O)C(=O)O` [citrate], the “effectiveness of chelating agent in stabilizing the aFGF-stabilizer-HEC combination” value [1] is reported as “not as effective as EDTA or EGTA”.
With `O=C(O)C1=C[C@H](O)[C@@H](OS(=O)(=O)O)[C@H](O[C@H]2[C@H](O)[C@@H](NS(=O)(=O)O)[C@@H](O)O[C@@H]2COS(=O)(=O)O)O1` [disaccharide, Δ.orgate.Ap2S(1→4)-α-D-GlcNp2S6S] the “effect of heparin fragment on Tm of aFGF” value (aFGF [2]; 1:1 weight ratio, fluorescence and circular dichroism) was “did not influence the Tm of aFGF”.
With `O=S(=O)([O-])[O-].[Na+].[Na+]` [Sodium Sulfate, sodium sulfate] the “Bioactivity (mitogenic activity of aFGF in the presence of ligand)” value [3] was 0, the “Cu Oxidation (% SH Lost in 10 Mins)” value (aFGF [4]) was 25% and the “Tm of aFGF (maximum Tm induced by ligand), circular dichroism” value (aFGF [5]) was 57 °C.
In the case of sulfated γ-cyclodextrin, the “Cu Oxidation (% SH Lost in 10 Mins)” value (aFGF [4]) is reported as 5% and the “Tm of aFGF (maximum Tm induced by ligand), circular dichroism” value (aFGF [5]) is reported as 70 °C.
With `[Cl][Ir-3]([Cl])([Cl])([Cl])([Cl])[Cl]` [(IrCl6)^-3, reference compound] the “Tm of aFGF, circular dichroism” value (aFGF [5]; 3X ligand by weight) was 51 °C and the “thermal melting temperature (Tm) of aFGF, fluorescence” value (aFGF [2]; 3X ligand by weight) was 43 °C.
In the case of `O=S(=O)(O)OC[C@H]1O[C@@](COS(=O)(=O)O)(O[C@H]2O[C@H](COS(=O)(=O)O)[C@@H](OS(=O)(=O)O)[C@H](OS(=O)(=O)O)[C@H]2OS(=O)(=O)O)[C@@H](OS(=O)(=O)O)[C@@H]1OS(=O)(=O)O` [Sucrose octasulfate, sucrose octasulfate], the “Bioactivity (mitogenic activity of aFGF in the presence of ligand)” value [3] is reported as 2.5 and the “Tm of aFGF (maximum Tm induced by ligand), circular dichroism” value (aFGF [5]) is reported as 65 °C.
